Test results published in ChEMBL document CHEMBL1201862, “PubChem BioAssay data set” (2004).
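Interpolation was linear, between the two tested concentrations surrounding the appropriate level; five concentrations were tested over 48 hours in 96-well plates. GI50 = concentration required for 50% inhibition of growth.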 Calls of active or inactive are those of the source. Rule as the data show it: active = GI50 up to about 1.1 µM and inactive = higher.

What was measured:
Assay in all cases: NCI anticancer screen, dose series, 48 h
[1] = system: CAKI-1
[2] = system: EKVX
[3] = system: HCT-116
[4] = system: IGROV-1
[5] = system: Malme-3M
[6] = system: NCI-H226
[7] = system: NCI-H23
[8] = system: OVCAR-3
[9] = system: RPMI-8226
[10] = system: RXF 393
[11] = system: SF-268
[12] = system: SN12C
[13] = system: SW-620
[14] = system: UACC-257
[15] = system: UO-31
[16] = system: Hs-578T
[17] = system: MDA-N
[18] = system: NCI/ADR-RES
[19] = system: MCF7
[20] = system: DU-145

| SMILES | GI50 [1] | GI50 [2] | GI50 [3] | GI50 [4] | GI50 [5] | GI50 [6] | GI50 [7] | GI50 [8] | GI50 [9] | GI50 [10] | GI50 [11] | GI50 [12] | GI50 [13] | GI50 [14] | GI50 [15] | GI50 [16] | GI50 [17] | GI50 [18] | GI50 [19] | GI50 [20] |
| --- | --- | --- | --- | --- | --- | --- | --- | --- | --- | --- | --- | --- | --- | --- | --- | --- | --- | --- | --- | --- |
| O=C(N[C@@H]1C=CCC[C@@H]1c1ccccc1)OCc1ccccc1 | 12.2 µM (inactive) | 23.2 µM (inactive) | 18.1 µM (inactive) | 24.2 µM (inactive) | 19.3 µM (inactive) | 19 µM (inactive) | 22.8 µM (inactive) | 16.8 µM (inactive) | 18 µM (inactive) | 20.3 µM (inactive) | 25 µM (inactive) | 16.9 µM (inactive) | 22.9 µM (inactive) | 17.5 µM (inactive) | 18.1 µM (inactive) |  |  |  |  |  |
| COc1cc(NCCC(=O)O)c2ncccc2c1 |  | > 100 µM (inactive) | > 100 µM (inactive) | > 100 µM (inactive) | > 100 µM (inactive) | > 100 µM (inactive) | > 100 µM (inactive) | > 100 µM (inactive) |  | > 100 µM (inactive) | > 100 µM (inactive) | > 100 µM (inactive) | > 100 µM (inactive) | > 100 µM (inactive) | > 100 µM (inactive) | 23.9 µM (inactive) | > 100 µM (inactive) | > 100 µM (inactive) |  |  |
| C[C@H](CCC1SC1(C)C)C1CCC2(C)C3=C(CC[C@]12C)[C@@]1(C)CC[C@H](O)C(C)(C)C1CC3 (stereo not given in full) | > 100 µM (inactive) | > 100 µM (inactive) | > 100 µM (inactive) | > 100 µM (inactive) | > 100 µM (inactive) | > 100 µM (inactive) | > 100 µM (inactive) | > 100 µM (inactive) | > 100 µM (inactive) | > 100 µM (inactive) | > 100 µM (inactive) | > 100 µM (inactive) | > 100 µM (inactive) | > 100 µM (inactive) | > 100 µM (inactive) |  |  |  |  |  |
| O=[N+]([O-])c1cccc2c(/N=N/c3ccc4ccccc4c3O)c(O)cc(S(=O)(=O)O)c12 | 2 µM (inactive) | 79.3 µM (inactive) | 31 µM (inactive) | 7.29 µM (inactive) | 14.6 µM (inactive) | 22.6 µM (inactive) | 33.3 µM (inactive) | 3.47 µM (inactive) | > 100 µM (inactive) | 38.4 µM (inactive) | 23.6 µM (inactive) | 64.7 µM (inactive) | 31.6 µM (inactive) | 31.8 µM (inactive) | 6.03 µM (inactive) | > 100 µM (inactive) | 31.1 µM (inactive) | 17 µM (inactive) |  |  |
| C1CN2N3CCCC23C1 (stereo not given) | > 100 µM (inactive) | > 100 µM (inactive) | > 100 µM (inactive) | > 100 µM (inactive) | > 100 µM (inactive) | > 100 µM (inactive) | > 100 µM (inactive) | > 100 µM (inactive) | > 100 µM (inactive) | > 100 µM (inactive) | > 100 µM (inactive) | > 100 µM (inactive) | > 100 µM (inactive) | > 100 µM (inactive) | > 100 µM (inactive) |  |  |  |  |  |
| Cc1ccc2nc(NC(=O)C(=O)C(C#N)c3ccc(Cl)cc3)sc2c1 (stereo not given) | > 50 µM (inactive) | > 50 µM (inactive) | > 50 µM (inactive) | > 50 µM (inactive) | > 50 µM (inactive) | > 50 µM (inactive) | > 50 µM (inactive) | > 50 µM (inactive) | > 50 µM (inactive) | > 50 µM (inactive) | > 50 µM (inactive) | > 50 µM (inactive) | > 50 µM (inactive) | > 50 µM (inactive) | > 50 µM (inactive) |  |  |  |  |  |
| COC(=O)/C1=C/C=C\C[C@@]2(C)CC(c3ccoc3)OC(=O)[C@@H]2CC[C@H]1C (stereo not given in full) | > 25 µM (inactive) | > 25 µM (inactive) | > 25 µM (inactive) | > 25 µM (inactive) | > 25 µM (inactive) | > 25 µM (inactive) | > 25 µM (inactive) | > 25 µM (inactive) |  | > 25 µM (inactive) |  | > 25 µM (inactive) | > 25 µM (inactive) | > 25 µM (inactive) | > 25 µM (inactive) | > 25 µM (inactive) | > 25 µM (inactive) | > 25 µM (inactive) | > 25 µM (inactive) |  |
| [N-]=[N+]=Nc1cc(=O)n(-c2ccccc2)c(=O)n1-c1ccccc1 | > 100 µM (inactive) | > 100 µM (inactive) | > 100 µM (inactive) | > 100 µM (inactive) | > 100 µM (inactive) | > 100 µM (inactive) | > 100 µM (inactive) | > 100 µM (inactive) | > 100 µM (inactive) | > 100 µM (inactive) | > 100 µM (inactive) | > 100 µM (inactive) | > 100 µM (inactive) | > 100 µM (inactive) | > 100 µM (inactive) | > 100 µM (inactive) |  | > 100 µM (inactive) | > 100 µM (inactive) |  |
| Nc1ncc(/C=N/O)c(NCC2(CO)CC(CCc3ccccc3)C2)n1 (stereo not given) | 18.4 µM (inactive) |  | 0.0569 µM (active) | 6.75 µM (inactive) | 12.1 µM (inactive) | 12.9 µM (inactive) |  | 11 µM (inactive) | 5.73 µM (inactive) | 12.1 µM (inactive) | 23.9 µM (inactive) | 17 µM (inactive) |  | 10.9 µM (inactive) | 5.45 µM (inactive) | 22.4 µM (inactive) |  | 5.82 µM (inactive) | 4.58 µM (inactive) | 5.41 µM (inactive) |
